Experimental data from publication PMC11992225, “Antibacterial compounds against non-growing and intracellular bacteria” (npj Antimicrobials and Resistance, 2025).
Where “and” joins values, the source holds several entries; their conditions need not be identical. Identical values can stand only once.

Columns and labels:
[1] = tested on: non-growing S. aureus DSM2569; assay: Dose-dependent killing analysis (CFU spot-plating) of stationary-phase S. aureus; type: cell-based, Staphylococcus aureus; conditions: for reduction of non-growing S. aureus: at 10 µM, 24 h treatment; for average Δlog10(CFU/ml) (killing) / Log10(CFU/ml), Replicate #1 / Log10(CFU/ml), Replicate #2 / Log10(CFU/ml), Replicate #3 / Δlog10(CFU/ml) / log10(CFU/ml) after treatment: S. aureus; for average Δlog10(CFU/ml) (killing): vs 9,097 before treatment; for Δlog10(CFU/ml): average killing vs before treatment (9,097); for log10(CFU/ml) after treatment: individual replicates
Protocol: To determine the spectrum of activity of the compounds that were effective against non-growing UPEC, we further assessed their efficacy against the well-characterized Gram-negative and Gram-positive reference strains P. aeruginosa DSM1117 and S. aureus DSM2569, respectively. The cultures were grown and treated for 24 h in 1:4 CA-MHB (pH 7.4). […].
For survival analysis, bacteria were cultivated as described for the dose–response dilution-regrowth assay. Assays with UPEC were conducted at the CBCS screening facility using 96-well plates with a 200 μl sample volume, and compounds were dispensed using the Echo® (Labcyte) system. P. aeruginosa and S. aureus samples were treated according to the protocol used for the dilution-regrowth experiments. Treated samples were serially diluted 10-fold in PBS, and 10 μl drops were spot-plated onto rectangular LB agar plates using either a Beckman NXP robot (for UPEC) or an Integra VIAFLO96 electronic pipette (for P. aeruginosa and S. aureus). The LB agar plates were incubated overnight at 37 °C and scanned. Colonies were counted at the spots of the lowest dilution where individual colonies could be accurately distinguished. Each colony was manually marked on a separate image layer using the GNU Image Manipulation Program, and counted using NIST’s Integrated Colony Enumerator (NICE 1.4) software. The experiments were performed in three biological replicates.

TC7 cells = assay: TC7 cell viability upon drug exposure, MTS assay; type: cell-based; conditions: at the MIC concentrations, 12 h, no bacteria
Protocol: TC7 cells were grown to confluence in transparent 96-well cell culture plates (TPP) in the same cell culture medium used for the in vitro infection assay. Just prior to the experiment, the medium was discarded, and the cells were washed twice with sterile PBS to remove any traces of medium or dead cells. […] The plate was incubated at 37 °C in a CO2 incubator for 12 h, under the same conditions as the infection assay.
The 3-(4,5-dimethylthiazol-2-yl)-5-(3-carboxymethoxyphenyl)-2-(4-sulfophenyl)-2H-tetrazolium (MTS) assay was performed using the CellTiter 96® AQueous One Solution Cell Proliferation Assay kit (Promega), according to the manufacturer’s instructions. Briefly, 20 μl of CellTiter 96 AQueous One Solution Reagent was added to each well, and the plate was incubated for 2 h at 37 °C in a CO2 incubator. The OD490 of the samples was measured using a Spark multimode plate reader (Tecan). The raw values were normalized to the control wells incubated with infection buffer only. The experiment was performed in duplicate.

[2] = tested on: non-growing P. aeruginosa; assay: Time-dependent effects of drug treatment on regrowth, P. aeruginosa; type: cell-based, Pseudomonas aeruginosa; conditions: 10 µM, OD600 8 h after dilution
Protocol: (§1) For screening and concentration-dependent characterization of the hit compounds, we used a 24-h incubation to capture their effects, although the actual onset of their activity may occur much sooner. To assess the speed of action, we treated stationary-phase cultures of three organisms with compounds that had previously shown a strong regrowth delay at 10 µM. We selected compounds that, in earlier tests, strongly delayed regrowth, such that diluted cultures remained below an OD600 of 0.12 (indicating no growth) after 6 h for UPEC or 8 h for P. aeruginosa and S. aureus in drug-free medium.
(§2) We collected samples at different times during the 24-h incubation, diluted them 2500-fold, and measured the OD600 after 6 or 8 h of further incubation, respectively. […] Rifampicin acts quickly against non-growing S. aureus, while the effects of the other compounds increase gradually during incubation but are already apparent within the first hour of treatment.
Bacteria were cultivated in 1:4 diluted CA-MHB (40 mM HEPES, pH 7.4) for 24 h. Aliquots were dispensed into a 96-well plate, and compounds were added at a 10 µM concentration. Samples were collected at designated time points, diluted 2500-fold as described for the dilution-regrowth assay, and incubated in standing plates within a humid box at 37 °C. The OD600 of the samples was measured to assess regrowth using a microplate reader (BioTek Synergy H1) after 6 h for UPEC and 8 h for P. aeruginosa and S. aureus. The experiment was performed in triplicates.

[3] = tested on: SOS response in UPEC CFT073; assay: SOS response induction analysis, pAED2 cda' promoter mScarlet-I reporter; type: cell-based, Escherichia coli; conditions: for induction of the SOS response in growing UPEC cultures: 6 h, MMC, BLE, ECH in 1:4 CA-MHB pH 7.4, PLI, SAT, EVO in LPM pH 5.5
Protocol: Since we aimed to test SOS induction in non-growing cultures, it was essential to use a reporter with no leaky expression in the stationary phase. Therefore, we constructed the plasmid pAED2, based on the low copy-number plasmid pSC101, which contains the cda’ promoter in front of the mScarlet-I-encoding reporter gene.
Overnight cultures of CFT073 harboring a reporter plasmid were grown in 3 ml of LB supplemented with 100 µg/ml carbenicillin (Cb), then diluted 1:100 into the medium used for testing. For validation of the pANO1::cda’ reporter, an overnight culture was diluted into CA-MHB (supplemented with 40 mM HEPES, pH 7.4, and 100 µg/ml Cb) and grown to an OD600 ≈ 0.5 at 37 °C with shaking at 200 rpm in an Erlenmeyer flask. […] Empty wells were filled with water. […] The experiment was performed in triplicate.
For analysis of the SOS induction by anti-cancer compounds, the overnight cultures were diluted either into 1:4 diluted CA-MHB (40 mM HEPES, pH 7.4) or LPM (30 mM MES, pH 5.5) that were supplemented with 100 µg/ml Cb. For analysis of the effect on growing bacteria, the cultures were incubated at 37 °C with shaking at 200 rpm in Erlenmeyer flasks for 90 min, to an OD600 ≈ 0.5. Then, 180 μl aliquots were transferred to 96-well plates, and 20 μl of the 200 μM drug solution was added to achieve a final concentration of 20 μM. The plates were incubated in a microplate reader (BioTek Synergy H1) at 37 °C with continuous shaking for 6 h. OD600 and mScarlet fluorescence were recorded throughout the incubation.
For analysis of the effect of anti-cancer compounds on stationary phase- and regrowing bacteria, the cultures were incubated for 24 h at 37 °C with shaking at 200 rpm in Erlenmeyer flasks. […] The samples were incubated for 24 h at 37 °C in standing 1.5 ml tubes. Before and after the drug treatment, 25 μl aliquots were taken and diluted by mixing with 175 μl PBS. OD600 and mScarlet fluorescence were recorded using a microplate reader (BioTek Synergy H1).
After the treatment, stationary-phase bacteria were harvested by centrifugation at 5000 × g for 5 min at 20 °C, washed twice with PBS, and resuspended in 475 μl PBS.

non-growing UPEC CFT073 = assay: Time-dependent effects of drug treatment on regrowth, UPEC; type: cell-based, Escherichia coli; conditions: E. coli, 10 µM, OD600 6 h after dilution
Protocol: as §1, §2
Bacteria were cultivated in 1:4 diluted CA-MHB (40 mM HEPES, pH 7.4) for 24 h. Aliquots were dispensed into a 96-well plate, and compounds were added at a 10 µM concentration. […] The OD600 of the samples was measured to assess regrowth using a microplate reader (BioTek Synergy H1) after 6 h for UPEC and 8 h for P. aeruginosa and S. aureus. […]

For `CCCCC(CC)CNC(=N)NC(=N)NCCCCCCNC(=N)NC(=N)NCC(CC)CCCC` (centres unmarked) [Alexidine], the “reduction of non-growing S. aureus” value [1] was “below the limit of detection” and the “toxicity to TC7 epithelial cells” value (TC7 cells) was “toxic”.

For `CN1CCN(c2cc3c(cc2F)c(=O)c(C(=O)O)cn3-c2ccc(F)cc2)CC1` [Difloxacin], the “average Δlog10(CFU/ml) (killing)” value ([1]; drug conc 0.1) was 0.032 log10(CFU/ml), the “average Δlog10(CFU/ml) (killing)” value ([1]; drug conc 0.5) was 0.171 log10(CFU/ml) and the “average Δlog10(CFU/ml) (killing)” value ([1]; drug conc 2.5) was 0.107 log10(CFU/ml). The “average Δlog10(CFU/ml) (killing)” value ([1]; drug conc 10) was 0.435 log10(CFU/ml) and the “speed of action: regrowth delay over treatment time” value [2] was “act more slowly”.

`CS[C@H]1SC[C@H]2C(=O)N(C)[C@@H](C(C)C)C(=O)OC[C@@H](NC(=O)c3cnc4ccccc4n3)C(=O)N[C@@H](C)C(=O)N(C)[C@@H]1C(=O)N(C)[C@@H](C(C)C)C(=O)OC[C@@H](NC(=O)c1cnc3ccccc3n1)C(=O)N[C@@H](C)C(=O)N2C` [Echinomycin] was tested, and the “induction of the SOS response in growing UPEC cultures” value (shortened to “induction of the SOS response”) ([3]; 20 μM) was “induced the SOS response”.

With `Cn1c(COP(=O)(NCCBr)NCCBr)cnc1[N+](=O)[O-]` [Evofosfamide] the “Log10(CFU/ml), Replicate #1” value ([1]; 0.1 μM) was 9.580 Log10(CFU/ml), the “Log10(CFU/ml), Replicate #2” value ([1]; 0.1 μM) was 8.996 Log10(CFU/ml) and the “Log10(CFU/ml), Replicate #3” value ([1]; 0.1 μM) was 9.049 Log10(CFU/ml). For the same molecule, the “Δlog10(CFU/ml)” value ([1]; 0.1 μM) was -0.111 log10(CFU/ml), the “Log10(CFU/ml), Replicate #1” value ([1]; 0.5 μM) was 9.362 Log10(CFU/ml) and the “Log10(CFU/ml), Replicate #2” value ([1]; 0.5 μM) was 9.017 Log10(CFU/ml). For the same molecule, the “Log10(CFU/ml), Replicate #3” value ([1]; 0.5 μM) was 8.881 Log10(CFU/ml), the “Δlog10(CFU/ml)” value ([1]; 0.5 μM) was 0.011 log10(CFU/ml) and the “Log10(CFU/ml), Replicate #1” value ([1]; 2.5 μM) was 8.863 Log10(CFU/ml). For the same molecule, the “Log10(CFU/ml), Replicate #2” value ([1]; 2.5 μM) was 8.724 Log10(CFU/ml), the “Log10(CFU/ml), Replicate #3” value ([1]; 2.5 μM) was 8.663 Log10(CFU/ml) and the “Δlog10(CFU/ml)” value ([1]; 2.5 μM) was 0.347 log10(CFU/ml). The “Log10(CFU/ml), Replicate #1” value ([1]; 10 μM) was 5.954 Log10(CFU/ml), the “Log10(CFU/ml), Replicate #2” value ([1]; 10 μM) was 5.845 Log10(CFU/ml) and the “Log10(CFU/ml), Replicate #3” value ([1]; 10 μM) was 5.748 Log10(CFU/ml). For the same molecule, the “Δlog10(CFU/ml)” value ([1]; 10 μM) was 3.248 log10(CFU/ml), the “reduction of non-growing S. aureus” value [1] was “below the limit of detection” and the “induction of the SOS response” value ([3]; 20 μM) was “induced the SOS response”. The “growth inhibition of growing UPEC” value ([3]; 20 μM, LPM pH 5.5, Fig. S7C,D) was “only a slight growth inhibition”.

For `C[C@H]1NCc2cc(-c3ccc4c(=O)c(C(=O)O)cn(C5CC5)c4c3OC(F)F)ccc21` [Garenoxacin], the “speed of action: regrowth delay over treatment time” value (non-growing UPEC CFT073) was “act more slowly”.

In the case of `CO[C@@]12[C@H](COC(N)=O)C3=C(C(=O)C(C)=C(N)C3=O)N1C[C@@H]1N[C@@H]12` [Mitomycin C], the “reduction of non-growing S. aureus” value [1] is reported as “below the limit of detection” and the “induction of the SOS response” value ([3]; 20 μM) is reported as “induced the SOS response”.

For `CC1COc2c(N3CCN(C)CC3)c(F)cc3c(=O)c(C(=O)O)cn1c23` (centres unmarked) [Ofloxacin], the “log10(CFU/ml) after treatment” value ([1]; concentration 0.1) was 9.279 log10(CFU/ml) and 9.041 log10(CFU/ml) and 9.086 log10(CFU/ml), the “log10(CFU/ml) after treatment” value ([1]; concentration 0.5) was 9.301 log10(CFU/ml) and 9.049 log10(CFU/ml) and 8.462 log10(CFU/ml) and the “log10(CFU/ml) after treatment” value ([1]; concentration 2.5) was 9.230 log10(CFU/ml) and 9.093 log10(CFU/ml) and 8.740 log10(CFU/ml). The “log10(CFU/ml) after treatment” value ([1]; concentration 10) was 9.447 log10(CFU/ml) and 8.924 log10(CFU/ml) and 8.839 log10(CFU/ml) and the “SOS induction during recovery of treated non-growing UPEC” value ([3]; 10 μM, 24 h, then washed and diluted in CA-MHB, single control experiment) was “SOS induction during recovery”.
